Patent US8394971B2, “Indole derivatives as selective androgen receptor modulators (SARMS)” (Janssen Pharmaceutica N.V., priority 2004, dated 2013)
Like-named read-outs stand apart in the source and are kept apart here.

Experiments:
[1] = biological target: T1, androgen receptor (adenovirus AdEasy+rAR in COS-7 cells) (Rattus norvegicus, UniProt P15207); assay: COS-7 Whole-Cell Androgen Receptor Binding Assay, Adenovirus Transduction; details: for IC50: read-out: IC50
T1 construct: expressed in transfected cells
T1 sequence (P15207 1-902): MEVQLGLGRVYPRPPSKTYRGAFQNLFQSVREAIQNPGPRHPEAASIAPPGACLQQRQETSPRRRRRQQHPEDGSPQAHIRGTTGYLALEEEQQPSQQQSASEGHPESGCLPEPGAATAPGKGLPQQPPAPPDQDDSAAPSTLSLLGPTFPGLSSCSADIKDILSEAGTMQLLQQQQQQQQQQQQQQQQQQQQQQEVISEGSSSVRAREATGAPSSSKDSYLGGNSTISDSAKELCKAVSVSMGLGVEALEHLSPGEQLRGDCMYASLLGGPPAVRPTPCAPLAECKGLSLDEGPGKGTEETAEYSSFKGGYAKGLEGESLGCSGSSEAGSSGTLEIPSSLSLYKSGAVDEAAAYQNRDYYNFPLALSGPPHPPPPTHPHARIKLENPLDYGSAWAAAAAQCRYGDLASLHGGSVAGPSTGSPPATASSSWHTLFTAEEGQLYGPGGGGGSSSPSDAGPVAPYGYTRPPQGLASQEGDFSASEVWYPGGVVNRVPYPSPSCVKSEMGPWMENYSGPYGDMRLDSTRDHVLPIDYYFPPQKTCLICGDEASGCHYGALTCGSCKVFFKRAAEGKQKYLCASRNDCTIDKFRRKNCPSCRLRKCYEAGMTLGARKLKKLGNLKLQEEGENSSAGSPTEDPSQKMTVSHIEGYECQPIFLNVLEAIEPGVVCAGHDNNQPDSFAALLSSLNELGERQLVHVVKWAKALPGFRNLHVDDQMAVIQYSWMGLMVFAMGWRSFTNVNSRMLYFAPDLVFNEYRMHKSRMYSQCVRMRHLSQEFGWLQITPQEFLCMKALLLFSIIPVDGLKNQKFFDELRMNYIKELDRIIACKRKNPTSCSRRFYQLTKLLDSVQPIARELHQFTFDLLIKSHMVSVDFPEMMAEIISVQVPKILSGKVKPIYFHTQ

[2] = biological target: T2, androgen receptor (adenovirus AdEasy+rAR in L929 cells) (Rattus norvegicus, UniProt P15207); assay: L929 Androgen Receptor Functional Assay, Adenovirus Transduction; format: cell-based; details: 3000 nM; for % Activity: L929 agonist testing; for % Inhibition: L929 antagonist testing with R1881
T2 construct: expressed in transfected cells
T2 sequence (P15207 1-902): T1 sequence (P15207 1-902)
How it was run: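 Luminescent reporter readout after 48 h at 37 °C: rat AR delivered by adenovirus (AdEasy+rAR, moi 1:500) into L929 cells grown without phenol red in charcoal-treated serum. Antagonist wells also received R1881 (2.5× dilution at 2.5 nM).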

[3] = COS binding, 3000 nM unless otherwise noted

SMILES | % Inhibition [1] [%] | IC50 ([1]; COS binding) [nM] | % Activity [2] [%] | % Inhibition [2] [%] | % Inhibition [1, 3] [%]
CC(C)CSCC(C)(O)c1cc2cc([N+](=O)[O-])c(C(F)(F)F)cc2[nH]1 (racemic) [compound 170] | 67 | > 3000 | 2 | 67 | 
CSCCC(C)(O)c1cc2cc([N+](=O)[O-])c(C(F)(F)F)cc2[nH]1 (racemic) [compound 47] | 78 | > 1000 | 2 | 75 | 
COc1ccc(S(=O)(=O)CC(C)(O)c2cc3cc(Cl)c(C(F)(F)F)cc3[nH]2)cc1 (racemic) [compound 129] |  |  | −5 | −8 | 10
COc1ccc(SCC(C)(O)c2cc3cc(Cl)c(C(F)(F)F)cc3n2S(C)(=O)=O)cc1 (racemic) [compound 130] |  |  | −5 |  | −8
CC(O)(C[S+]([O-])Cc1ccccc1)c1cc2cc([N+](=O)[O-])c(C(F)(F)F)cc2[nH]1 (mixture of isomers) [compound 161] |  |  | 2 |  | 20
